Patent US20100272680A1, “Piperidinyl Cyclic Amido Antiviral Agents” (priority 2009, published 2010)

Tests used:
[1] = test system: HCV Genotype 1A Replicon; assay: Replicon assay, genotype 1a subgenomic replicon, luciferase readout; type: cell-based; conditions: Hepatitis C virus, 48 h, Table 3; luciferase activity after 48 hours
Description: (§1) Compounds were assayed for activity against HCV using the genotype 1a and 1b subgenomic replicon model systems. Stable cell lines bearing the genotype 1a and 1b replicons were used for screening of compounds. Both replicons are bicistonic and contain the firefly luciferase gene. The ET cell line is stably transfected with RNA transcripts harboring a I389luc-ubi-neo/NS3-3′/ET replicon with firefly luciferase-ubiquitin-neomycin phosphotransferase fusion protein and EMCV-IRES driven NS3-5B polyprotein containing the cell culture adaptive mutations (E1202G; T12801; K1846T) (Krieger at al, 2001 and unpublished). The genotype 1a replicon is a stable cell line licensed from Apath LLC, modified to contain the firefly luciferase gene. The cells were grown in DMEM, supplemented with 10% fetal calf serum, 2 mM Glutamine, Penicillin (100 IU/mL)/Streptomycin (100 μg/mL), 1× nonessential amino acids, and 250-500 μg/mL G418 (“Geneticin”). They were all available through Life Technologies (Bethesda, Md.). The cells were plated at 0.5×10^4 cells/well in 384 well plates containing compounds. The final concentration of compounds ranged between 0.03 μM to 50 μm and the final DMSO concentration of 0.5-1%.
(§2) Luciferase activity was measured 48 hours later by adding a Steady glo (Promega, Madison, Wis.). Percent inhibition of replication data was plotted relative to no compound control. Under the same condition, cytotoxicity of the compounds was determined using cell titer glo (Promega, Madison, Wis). IC50s were determined from a 10 point dose response curve using 3-4-fold serial dilution for each compound, which spans a concentration range >1000 fold. BioAssay determines the level of inhibition for each compound by normalizing cross-talk corrected plate values against the negative […] controls to determine Percent Inhibition:
(§3) These normalized values are exported to EC50 where they are plotted against the molar compound concentrations using the standard four parameter logistic equation: […]
(§4) Some EC50 measurements were repeated a second time and for both 1A and 1B genotypes after those reported in Table 2 for compounds 101-108 and the repeated data was reported in Table 3.

[2] = test system: HCV Genotype 1B Replicon; assay: Replicon assay, genotype 1b subgenomic replicon (ET cell line), luciferase readout; type: cell-based; conditions: Hepatitis C virus, 48 h, Table 3; luciferase activity after 48 hours
Description: as §1, §2, §3, §4

| Compound | EC50 [1] | EC50 [2] |
| --- | --- | --- |
| O=C(c1nc2c(C(F)(F)F)cc(C3CCOC3)cn2c1Cl)N1CCC(N2CCOC2=O)CC1 (stereo not shown) [Compound 137, 3-(1-{[3-chloro-6-(tetrahydro-3-furanyl)-8-(trifluoromethyl)imidazo[1,2-a]pyridin-2-yl]carbonyl}-4-piperidinyl)-1,3-oxazolidin-2-one] | 310 nM | 1270 nM |
| CC(C)Oc1cc(C(F)(F)F)c2nc(C(=O)N3CCC(N4CCOC4=O)CC3)c(Cl)n2c1 [Compound 138, 3-(1-{[3-chloro-6-[(1-methylethyl)oxy]-8-(trifluoromethyl)imidazo[1,2-a]pyridin-2-yl]carbonyl}-4-piperidinyl)-1,3-oxazolidin-2-one] | 280 nM | 420 nM |
| O=C(c1nc2c(C(F)(F)F)cc(-n3ccnc3)cn2c1Cl)N1CCC(N2CCOC2=O)CC1 [Compound 139, 3-(1-{[3-chloro-6-(1H-imidazol-1-yl)-8-(trifluoromethyl)imidazo[1,2-a]pyridin-2-yl]carbonyl}-4-piperidinyl)-1,3-oxazolidin-2-one] | 2660 nM | ≥ 5010 nM |
| CC(C)Cc1cc(C(F)(F)F)c2nc(C(=O)N3CCC(N4C(=O)COC4=O)CC3)c(Cl)n2c1 [Compound 140, 3-(1-{[3-chloro-6-(2-methylpropyl)-8-(trifluoromethyl)imidazo[1,2-a]pyridin-2-yl]carbonyl}-4-piperidinyl)-1,3-oxazolidine-2,4-dione] | 50 nM | 150 nM |
| CCC(C)c1cc(C(F)(F)F)c2nc(C(=O)N3CCC(N4CCOC4=O)CC3)c(Cl)n2c1 (stereo not shown) [Compound 141, 3-(1-{[3-chloro-6-(1-methylpropyl)-8-(trifluoromethyl)imidazo[1,2-a]pyridin-2-yl]carbonyl}-4-piperidinyl)-1,3-oxazolidin-2-one] | 160 nM | 550 nM |
| O=C(c1nc2c(C(F)(F)F)cc(Br)cn2c1Cl)N1CCC(N2C(=O)COC2=O)CC1 [Compound 142, 3-(1-{[6-bromo-3-chloro-8-(trifluoromethyl)imidazo[1,2-a]pyridin-2-yl]carbonyl}-4-piperidinyl)-1,3-oxazolidine-2,4-dione] | 70 nM | 70 nM |
| O=C(c1nc2c(C(F)(F)F)cc(Br)cn2c1Cl)N1CCC(N2CCCC2=O)CC1 [Compound 143, 1-(1-{[6-bromo-3-chloro-8-(trifluoromethyl)imidazo[1,2-a]pyridin-2-yl]carbonyl}-4-piperidinyl)-2-pyrrolidinone] | 480 nM | 200 nM |
| O=C(c1nc2c(C(F)(F)F)cc(OC(F)F)cn2c1Cl)N1CCC(N2CCOC2=O)CC1 [Compound 144, 3-(1-{[3-chloro-6-[(difluoromethyl)oxy]-8-(trifluoromethyl)imidazo[1,2-a]pyridin-2-yl]carbonyl}-4-piperidinyl)-1,3-oxazolidin-2-one] | 20 nM | 50 nM |
| O=C(c1nc2c(C(F)(F)F)cc(OC(F)F)cn2c1Cl)N1CCC(N2C(=O)COC2=O)CC1 [Compound 145, 3-(1-{[3-chloro-6-[(difluoromethyl)oxy]-8-(trifluoromethyl)imidazo[1,2-a]pyridin-2-yl]carbonyl}-4-piperidinyl)-1,3-oxazolidine-2,4-dione] | 50 nM | 50 nM |
| O=C(c1nc2c(C(F)(F)F)cc(-c3ccco3)cn2c1Cl)N1CCC(N2CCOC2=O)CC1 [Compound 146, 3-(1-{[3-chloro-6-(2-furanyl)-8-(trifluoromethyl)imidazo[1,2-a]pyridin-2-yl]carbonyl}-4-piperidinyl)-1,3-oxazolidin-2-one] | 20 nM | 30 nM |
| O=C(c1nc2c(C(F)(F)F)cc(-c3cc[nH]c3)cn2c1Cl)N1CCC(N2CCOC2=O)CC1 [Compound 147, 3-(1-{[3-chloro-6-(1H-pyrrol-3-yl)-8-(trifluoromethyl)imidazo[1,2-a]pyridin-2-yl]carbonyl}-4-piperidinyl)-1,3-oxazolidin-2-one] | 20 nM | 20 nM |
